Converted amounts (≈) assume the structure as drawn. Read-outs that look alike come from different tables or passages of the source.
What was measured:
Assay type in all cases: cell-based
M. morganii 126/3048 = assay: MIC determination, broth microdilution (CLSI); details: for MIC: Morganella morganii, 126/3048, strain 5
S. maltophilia ICB7569 = assay: MIC determination, broth microdilution (CLSI); details: strain 10
S. aureus 133 = assay: MIC determination, broth microdilution (CLSI)
K. pneumoniae 60 = assay: MIC determination, broth microdilution (CLSI); details: for MIC: Klebsiella pneumoniae, 60, strain 2
A. baumannii ATCC15308 = assay: MIC determination, broth microdilution (CLSI); details: for MIC: Acinetobacter baumannii, ATCC15308, strain 9
E. cloacae 34654 = assay: MIC determination, broth microdilution (CLSI); details: for MIC: Enterobacter cloacae, 34654, strain 3
[1] = tested on: P. aeruginosa 2297-con (AmpC derepressed); assay: MIC determination, broth microdilution (CLSI); details: for MIC: Pseudomonas aeruginosa, read-out: strain 8 MIC, strain 8
S. pneumoniae 113 = assay: MIC determination, broth microdilution (CLSI); details: broth microdilution; for MIC: Streptococcus pneumoniae, 113, strain 13, read-out: MIC strain 13 (S. pneumoniae 113)
E. coli ATCC25922 = assay: MIC determination, broth microdilution (CLSI); details: for MIC: Escherichia coli, ATCC25922, strain 1
H. influenzae ATCC 49247 = assay: MIC determination, broth microdilution (CLSI); details: broth microdilution; for MIC: Haemophilus influenzae, ATCC49247, strain 12, read-out: MIC strain 12 (H. influenzae ATCC 49247)
E. coli J62 = assay: MIC determination, broth microdilution (CLSI); details: broth microdilution; for MIC: Escherichia coli, J62, strain 17, read-out: MIC strain 17 (E. coli J62)
C. freundii K21/3034 = assay: MIC determination, broth microdilution (CLSI); details: for MIC: Citrobacter freundii, K21/3034, strain 4
Bacteria = assay: MIC determination in combination with β-lactamase inhibitors (constant 4 μg/mL)
P. aeruginosa PAO1 = assay: MIC determination, broth microdilution (CLSI); details: for MIC: Pseudomonas aeruginosa, PAO1, strain 6
E. coli J62-TEM-3 = assay: MIC determination, broth microdilution (CLSI); details: broth microdilution; for MIC: Escherichia coli, J62TEM3, read-out: MIC strain 18 (E. coli J62-TEM-3), strain 18
[2] = tested on: P. aeruginosa 2297 (AmpC wt); assay: MIC determination, broth microdilution (CLSI); details: for MIC: Pseudomonas aeruginosa, strain 7
C. perfringens DSM756 = assay: microbe, parasite or virus in culture; details: Clostridium perfringens, DSM756, read-out: MIC strain 16 (C. perfringens DSM756), strain 16; broth microdilution
B. fragilis 6688 = assay: MIC determination, broth microdilution (CLSI); details: Bacteroides fragilis, 6688, strain 15; broth microdilution; read-out: MIC strain 15 (B. fragilis 6688)
[3] = Staphylococcus aureus, 133, strain 11, read-out: strain 11 MIC
[4] = Staphylococcus aureus, 133, strain 14, broth microdilution, read-out: MIC strain 14 (S. aureus 133)

| Compound | MIC strain 19 (E. coli J62-TEM-3 + 4 μg/mL clavulanic acid) (Bacteria) | MIC strain 20 (E. coli J62-TEM-3 + 4 μg/mL sulbactam) (Bacteria) | MIC strain 21 (E. coli J62-TEM-3 + 4 μg/mL tazobactam) (Bacteria) | MIC (M. morganii 126/3048) | MIC (S. aureus 133; [3]) | MIC (K. pneumoniae 60) | MIC (A. baumannii ATCC15308) | MIC (C. perfringens DSM756) | MIC (E. cloacae 34654) | MIC (S. pneumoniae 113) | MIC (E. coli ATCC25922) | MIC (H. influenzae ATCC 49247) | MIC (E. coli J62) | MIC (B. fragilis 6688) | MIC (C. freundii K21/3034) | MIC (P. aeruginosa PAO1) | MIC (E. coli J62-TEM-3) | MIC (S. aureus 133; [4]) | MIC [2] | also measured |
| --- | --- | --- | --- | --- | --- | --- | --- | --- | --- | --- | --- | --- | --- | --- | --- | --- | --- | --- | --- | --- |
| CC1(C)[C@H](NC(=O)/C(=N\OC(COc2ccc(C(=N)NCCN)cc2)C(=O)O)c2csc(N)n2)C(=O)N1OS(=O)(=O)O (mixture of isomers) [Example 44B, (2R and 2S)-3-{4-[N-(2-Aminoethyl)carbamimidoyl]phenoxy}-2-({[(1Z)-1-(2-amino-1,3-thiazol-4-yl)-2-{[(3S)-2,2-dimethyl-4-oxo-1-(sulfooxy)azetidin-3-yl]amino}-2-oxoethylidene]amino}oxy)propanoic acid] | 2 µg/mL | 2 µg/mL | 4 µg/mL | – | – | – | – | – | – | – | – | – | – | – | – | – | – | – | – | strain 5 MIC (M. morganii 126/3048; strain 5): 4 µg/mL; strain 10 MIC (S. maltophilia ICB7569): 16 µg/mL; strain 11 MIC (S. aureus 133; strain 11): ≦0.063 mg/L; strain 2 MIC (K. pneumoniae 60; strain 2): 1 µg/mL; strain 9 MIC (A. baumannii ATCC15308; strain 9): 8 µg/mL; strain 3 MIC (E. cloacae 34654; strain 3): 4 µg/mL; strain 8 MIC ([1]; strain 8): 8 µg/mL; MIC strain 13 (S. pneumoniae 113) (S. pneumoniae 113; strain 13): 4 µg/mL; strain 1 MIC (E. coli ATCC25922; strain 1): 2 µg/mL; MIC strain 12 (H. influenzae ATCC 49247) (H. influenzae ATCC 49247; strain 12): 0.5 µg/mL; MIC strain 17 (E. coli J62) (E. coli J62; strain 17): 2 µg/mL; strain 4 MIC (C. freundii K21/3034; strain 4): 2 µg/mL; strain 6 MIC (P. aeruginosa PAO1; strain 6): 8 µg/mL; MIC strain 18 (E. coli J62-TEM-3) (E. coli J62-TEM-3; strain 18): 4 µg/mL; strain 7 MIC [2]: 16 µg/mL |
| CC1(C)[C@H](NC(=O)/C(=N\OCC(Oc2ccc(C(=N)N)cc2)C(=O)O)c2csc(N)n2)C(=O)N1OS(=O)(=O)O (single isomer, unassigned) [Example 87A] | 1 µg/mL | 1 µg/mL | 2 µg/mL | 0.25 µg/mL (≈ 0.427 µM) | ≤ 0.063 µg/mL | 1 µg/mL (≈ 1.71 µM) | 8 µg/mL (≈ 13.7 µM) | 8 µg/mL (≈ 13.7 µM) | 1 µg/mL (≈ 1.71 µM) | 0.5 µg/mL (≈ 0.854 µM) | 1 µg/mL (≈ 1.71 µM) | 0.25 µg/mL (≈ 0.427 µM) | 2 µg/mL (≈ 3.42 µM) | 32 µg/mL (≈ 54.6 µM) | 1 µg/mL (≈ 1.71 µM) | 32 µg/mL (≈ 54.6 µM) | 32 µg/mL (≈ 54.6 µM) | – | – | – |
| C[C@H]1[C@H](NC(=O)/C(=N\OCCOc2ccc(C(=N)N)cc2)c2csc(N)n2)C(=O)N1OS(=O)(=O)O [Example 47, (2Z)-2-(2-Amino-1,3-thiazol-4-yl)-2-{[2-(4-carbamimidoylphenoxy)ethoxy]imino}-N-[(2S,3S)-2-methyl-4-oxo-1-(sulfooxy)azetidin-3-yl]ethanamide] | 0.5 µg/mL | 0.5 µg/mL | 0.5 µg/mL | 2 µg/mL (≈ 3.79 µM) | ≤ 0.063 µg/mL | 0.5 µg/mL (≈ 0.948 µM) | 2 µg/mL (≈ 3.79 µM) | 1 µg/mL (≈ 1.9 µM) | 1 µg/mL (≈ 1.9 µM) | 0.125 µg/mL (≈ 0.237 µM) | 0.25 µg/mL (≈ 0.474 µM) | 0.125 µg/mL (≈ 0.237 µM) | 0.5 µg/mL (≈ 0.948 µM) | 16 µg/mL (≈ 30.3 µM) | 0.5 µg/mL (≈ 0.948 µM) | 4 µg/mL (≈ 7.58 µM) | 32 µg/mL (≈ 60.7 µM) | 1 µg/mL (≈ 1.9 µM) | 2 µg/mL (≈ 3.79 µM) | – |
| CC1(C)[C@H](NC(=O)/C(=N\OCCCOc2ccc(C(=N)N)cc2)c2csc(N)n2)C(=O)N1OS(=O)(=O)O [Example 58, (2Z)-2-(2-Amino-1,3-thiazol-4-yl)-2-{[3-(4-carbamimidoylphenoxy)propoxy]imino}-N-[(3S)-2,2-dimethyl-4-oxo-1-(sulfooxy)azetidin-3-yl]ethanamide] | 2 µg/mL | 2 µg/mL | 2 µg/mL | 1 µg/mL (≈ 1.8 µM) | ≤ 0.063 µg/mL | 4 µg/mL (≈ 7.2 µM) | 16 µg/mL (≈ 28.8 µM) | 4 µg/mL (≈ 7.2 µM) | 4 µg/mL (≈ 7.2 µM) | ≤ 0.063 µg/mL | 2 µg/mL (≈ 3.6 µM) | 0.5 µg/mL (≈ 0.9 µM) | 4 µg/mL (≈ 7.2 µM) | 4 µg/mL (≈ 7.2 µM) | 1 µg/mL (≈ 1.8 µM) | 16 µg/mL (≈ 28.8 µM) | 32 µg/mL (≈ 57.6 µM) | 4 µg/mL (≈ 7.2 µM) | 32 µg/mL (≈ 57.6 µM) | MIC [1]: 16 µg/mL (≈ 28.8 µM) |
| N=C(N)c1ccc(OCCO/N=C(\C(=O)N[C@@H]2C(=O)N(S(=O)(=O)O)[C@@H]2C(N)=O)c2csc(N)n2)cc1 [Example 66, (2S,3S)-3-{[(2Z)-2-(2-Amino-1,3-thiazol-4-yl)-2-{[2-(4-carbamimidoylphenoxy)-ethoxy]imino}acetyl]amino}-2-carbamoyl-4-oxoazetidine-1-sulfonic acid] | 2 µg/mL | 2 µg/mL | 2 µg/mL | 2 µg/mL (≈ 3.7 µM) | 1 µg/mL (≈ 1.85 µM) | 1 µg/mL (≈ 1.85 µM) | 4 µg/mL (≈ 7.4 µM) | 16 µg/mL (≈ 29.6 µM) | 4 µg/mL (≈ 7.4 µM) | 1 µg/mL (≈ 1.85 µM) | 2 µg/mL (≈ 3.7 µM) | 2 µg/mL (≈ 3.7 µM) | 2 µg/mL (≈ 3.7 µM) | 16 µg/mL (≈ 29.6 µM) | 2 µg/mL (≈ 3.7 µM) | 32 µg/mL (≈ 59.2 µM) | 4 µg/mL (≈ 7.4 µM) | – | 32 µg/mL (≈ 59.2 µM) | – |
| C[C@H]1[C@H](NC(=O)/C(=N\OCCOc2ccc(C(=N)NCCO)cc2)c2csc(N)n2)C(=O)N1S(=O)(=O)O [Example 69, (2S,3S)-3-({(2Z)-2-(2-Amino-1,3-thiazol-4-yl)-2-[(2-{4-[N-(2-hydroxyethyl)carbamimidoyl]-phenoxy}ethoxy)imino]acetyl}amino)-2-methyl-4-oxoazetidine-1-sulfonic acid] | 0.25 µg/mL | 0.25 µg/mL | 0.25 µg/mL | 0.125 µg/mL (≈ 0.225 µM) | ≤ 0.063 µg/mL | 0.25 µg/mL (≈ 0.45 µM) | 2 µg/mL (≈ 3.6 µM) | 1 µg/mL (≈ 1.8 µM) | 0.25 µg/mL (≈ 0.45 µM) | ≤ 0.063 µg/mL | 0.125 µg/mL (≈ 0.225 µM) | ≤ 0.063 µg/mL | 0.25 µg/mL (≈ 0.45 µM) | 1 µg/mL (≈ 1.8 µM) | 0.125 µg/mL (≈ 0.225 µM) | 4 µg/mL (≈ 7.2 µM) | 16 µg/mL (≈ 28.8 µM) | 4 µg/mL (≈ 7.2 µM) | 8 µg/mL (≈ 14.4 µM) | – |
| CC1(C)[C@H](NC(=O)/C(=N\OCCOc2ccc(C(=N)NCC[N+]3(C)CCCC3)cc2)c2csc(N)n2)C(=O)N1OS(=O)(=O)O.O=C([O-])C(F)(F)F [Example 79, 1-(2-{[{4-[2-({[(1Z)-1-(2-Amino-1,3-thiazol-4-yl)-2-{[(3S)-2,2-dimethyl-4-oxo-1-(sulfo-oxy)azetidin-3-yl]amino}-2-oxoethylidene]amino}oxy)ethoxy]phenyl}(imino)-methyl]amino}ethyl)-1-methylpyrrolidinium chloride] | 0.5 µg/mL | 0.5 µg/mL | 0.5 µg/mL | 1 µg/mL | ≤ 0.063 µg/mL | 0.5 µg/mL | 0.5 µg/mL | 2 µg/mL | 0.5 µg/mL | ≤ 0.063 µg/mL | 0.5 µg/mL | ≤ 0.063 µg/mL | 0.5 µg/mL | 4 µg/mL | 0.25 µg/mL | 8 µg/mL | 8 µg/mL | 2 µg/mL | 8 µg/mL | MIC [1]: 4 µg/mL |
| CC1(C)[C@H](NC(=O)/C(=N\O[C@H](COc2ccc(C(=N)NC(CN)CN)cc2)C(=O)O)c2csc(N)n2)C(=O)N1OS(=O)(=O)O [Example 103, (2R)-2-({[(1Z)-1-(2-Amino-1,3-thiazol-4-yl)-2-{[(3S)-2,2-dimethyl-4-oxo-1-(sulfooxy)-azetidin-3-yl]amino}-2-oxoethylidene]amino}oxy)-3-{4-[N-(1,3-diaminopropan-2-yl)carbamimidoyl]phenoxy}propanoic acid] | – | – | – | 2 µg/mL (≈ 3.04 µM) | ≤ 0.063 µg/mL | – | 32 µg/mL (≈ 48.7 µM) | 32 µg/mL (≈ 48.7 µM) | – | 4 µg/mL (≈ 6.08 µM) | 2 µg/mL (≈ 3.04 µM) | 0.25 µg/mL (≈ 0.38 µM) | – | – | – | 16 µg/mL (≈ 24.3 µM) | – | – | – | – |

From patent US9556165B2 (priority 2012, dated 2017)
